How the values were obtained:
CCRF-CEM = assay: NCI-60 one-dose SRB screen (Leukemia); format: cell-based; conditions: Homo sapiens, single dose 10 µM, 48 h, read-out: Growth inhibition percent (GI %)
HL-60(TB) = assay: NCI-60 one-dose SRB screen (Leukemia); format: cell-based; conditions: Homo sapiens, single dose 10 µM, 48 h, read-out: Growth inhibition percent (GI %)
K-562 = assay: NCI-60 one-dose SRB screen (Leukemia); format: cell-based; conditions: Homo sapiens, K562, single dose 10 µM, 48 h, read-out: Growth inhibition percent (GI %)
MOLT-4 = assay: NCI-60 one-dose SRB screen (Leukemia); format: cell-based; conditions: Homo sapiens, single dose 10 µM, 48 h, read-out: Growth inhibition percent (GI %)
RPMI-8226 = assay: NCI-60 one-dose SRB screen (Leukemia); format: cell-based; conditions: Homo sapiens, single dose 10 µM, 48 h, read-out: Growth inhibition percent (GI %)
SR = assay: NCI-60 one-dose SRB screen (Leukemia); format: cell-based; conditions: Homo sapiens, single dose 10 µM, 48 h, read-out: Growth inhibition percent (GI %)
COLO 205 = assay: NCI-60 one-dose SRB screen (Colon Cancer); format: cell-based; conditions: Homo sapiens, single dose 10 µM, 48 h, read-out: Growth inhibition percent (GI %)
HCC-2998 = assay: NCI-60 one-dose SRB screen (Colon Cancer); format: cell-based; conditions: Homo sapiens, single dose 10 µM, 48 h, read-out: Growth inhibition percent (GI %)
HCT-116 = assay: NCI-60 one-dose SRB screen (Colon Cancer); format: cell-based; conditions: Homo sapiens, single dose 10 µM, 48 h, read-out: Growth inhibition percent (GI %)
HCT-15 = assay: NCI-60 one-dose SRB screen (Colon Cancer); format: cell-based; conditions: Homo sapiens, single dose 10 µM, 48 h, read-out: Growth inhibition percent (GI %)
HT29 = assay: NCI-60 one-dose SRB screen (Colon Cancer); format: cell-based; conditions: Homo sapiens, HT-29, single dose 10 µM, 48 h, read-out: Growth inhibition percent (GI %)
KM12 = assay: NCI-60 one-dose SRB screen (Colon Cancer); format: cell-based; conditions: Homo sapiens, single dose 10 µM, 48 h, read-out: Growth inhibition percent (GI %)
SW-620 = assay: NCI-60 one-dose SRB screen (Colon Cancer); format: cell-based; conditions: Homo sapiens, single dose 10 µM, 48 h, read-out: Growth inhibition percent (GI %)
LOX IMVI = assay: NCI-60 one-dose SRB screen (Melanoma); format: cell-based; conditions: Homo sapiens, single dose 10 µM, 48 h, read-out: Growth inhibition percent (GI %)
M14 = assay: NCI-60 one-dose SRB screen (Melanoma); format: cell-based; conditions: Homo sapiens, single dose 10 µM, 48 h, read-out: Growth inhibition percent (GI %)
MALME-3M = assay: NCI-60 one-dose SRB screen (Melanoma); format: cell-based; conditions: Homo sapiens, single dose 10 µM, 48 h, read-out: Growth inhibition percent (GI %)
MDA-MB-435 = assay: NCI-60 one-dose SRB screen (Melanoma); format: cell-based; conditions: Homo sapiens, single dose 10 µM, 48 h, read-out: Growth inhibition percent (GI %)
SK-MEL-28 = assay: NCI-60 one-dose SRB screen (Melanoma); format: cell-based; conditions: Homo sapiens, single dose 10 µM, 48 h, read-out: Growth inhibition percent (GI %)
SK-MEL-2 = assay: NCI-60 one-dose SRB screen (Melanoma); format: cell-based; conditions: Homo sapiens, single dose 10 µM, 48 h, read-out: Growth inhibition percent (GI %)
SK-MEL-5 = assay: NCI-60 one-dose SRB screen (Melanoma); format: cell-based; conditions: Homo sapiens, single dose 10 µM, 48 h, read-out: Growth inhibition percent (GI %)
UACC-257 = assay: NCI-60 one-dose SRB screen (Melanoma); format: cell-based; conditions: Homo sapiens, single dose 10 µM, 48 h, read-out: Growth inhibition percent (GI %)
UACC-62 = assay: NCI-60 one-dose SRB screen (Melanoma); format: cell-based; conditions: Homo sapiens, single dose 10 µM, 48 h, read-out: Growth inhibition percent (GI %)
IGROV1 = assay: NCI-60 one-dose SRB screen (Ovarian cancer); format: cell-based; conditions: Homo sapiens, IGROV-1, single dose 10 µM, 48 h, read-out: Growth inhibition percent (GI %)
NCI/ADR-RES = assay: NCI-60 one-dose SRB screen (Ovarian cancer); format: cell-based; conditions: Homo sapiens, single dose 10 µM, 48 h, read-out: Growth inhibition percent (GI %)
OVCAR-3 = assay: NCI-60 one-dose SRB screen (Ovarian cancer); format: cell-based; conditions: Homo sapiens, single dose 10 µM, 48 h, read-out: Growth inhibition percent (GI %)
OVCAR-4 = assay: NCI-60 one-dose SRB screen (Ovarian cancer); format: cell-based; conditions: Homo sapiens, single dose 10 µM, 48 h, read-out: Growth inhibition percent (GI %)
OVCAR-8 = assay: NCI-60 one-dose SRB screen (Ovarian cancer); format: cell-based; conditions: Homo sapiens, single dose 10 µM, 48 h, read-out: Growth inhibition percent (GI %)
786-0 = assay: NCI-60 one-dose SRB screen (Renal Cancer); format: cell-based; conditions: Homo sapiens, single dose 10 µM, 48 h, read-out: Growth inhibition percent (GI %)
A498 = assay: NCI-60 one-dose SRB screen (Renal Cancer); format: cell-based; conditions: Homo sapiens, single dose 10 µM, 48 h, read-out: Growth inhibition percent (GI %)
ACHN = assay: NCI-60 one-dose SRB screen (Renal Cancer); format: cell-based; conditions: Homo sapiens, single dose 10 µM, 48 h, read-out: Growth inhibition percent (GI %)
CAKI-1 = assay: NCI-60 one-dose SRB screen (Renal Cancer); format: cell-based; conditions: Homo sapiens, single dose 10 µM, 48 h, read-out: Growth inhibition percent (GI %)
RXF 393 = assay: NCI-60 one-dose SRB screen (Renal Cancer); format: cell-based; conditions: Homo sapiens, single dose 10 µM, 48 h, read-out: Growth inhibition percent (GI %)
SN12C = assay: NCI-60 one-dose SRB screen (Renal Cancer); format: cell-based; conditions: Homo sapiens, single dose 10 µM, 48 h, read-out: Growth inhibition percent (GI %)
TK-10 = assay: NCI-60 one-dose SRB screen (Renal Cancer); format: cell-based; conditions: Homo sapiens, single dose 10 µM, 48 h, read-out: Growth inhibition percent (GI %)
UO-31 = assay: NCI-60 one-dose SRB screen (Renal Cancer); format: cell-based; conditions: Homo sapiens, single dose 10 µM, 48 h, read-out: Growth inhibition percent (GI %)
DU-145 = assay: NCI-60 one-dose SRB screen (Prostate Cancer); format: cell-based; conditions: Homo sapiens, single dose 10 µM, 48 h, read-out: Growth inhibition percent (GI %)
PC-3 = assay: NCI-60 one-dose SRB screen (Prostate Cancer); format: cell-based; conditions: Homo sapiens, single dose 10 µM, 48 h, read-out: Growth inhibition percent (GI %)
BT-549 = assay: NCI-60 one-dose SRB screen (Breast Cancer); format: cell-based; conditions: Homo sapiens, single dose 10 µM, 48 h, read-out: Growth inhibition percent (GI %)
HS 578T = assay: NCI-60 one-dose SRB screen (Breast Cancer); format: cell-based; conditions: Homo sapiens, single dose 10 µM, 48 h, read-out: Growth inhibition percent (GI %)
MCF-7 = assay: NCI-60 one-dose SRB screen (Breast Cancer); format: cell-based; conditions: Homo sapiens, MCF7, single dose 10 µM, 48 h, read-out: Growth inhibition percent (GI %)
MDA-MB-231/ATCC = assay: NCI-60 one-dose SRB screen (Breast Cancer); format: cell-based; conditions: Homo sapiens, single dose 10 µM, 48 h, read-out: Growth inhibition percent (GI %)
MDA-MB-468 = assay: NCI-60 one-dose SRB screen (Breast Cancer); format: cell-based; conditions: Homo sapiens, single dose 10 µM, 48 h, read-out: Growth inhibition percent (GI %)
T-47D = assay: NCI-60 one-dose SRB screen (Breast Cancer); format: cell-based; conditions: Homo sapiens, T47D, single dose 10 µM, 48 h, read-out: Growth inhibition percent (GI %)
hCA IX = hCA IX (Homo sapiens, UniProt Q16790); assay: CA inhibitory activity, spectrophotometric p-NPA assay; format: biochemical; conditions: p-NPA substrate, pH 7.5, 25 °C, triplicate; read-out: IC50 (µM) ± SD hCA IX
hCA XII = hCA XII (Homo sapiens, UniProt O43570); assay: as above; format: biochemical; conditions: p-NPA substrate, pH 7.5, 25 °C, triplicate; read-out: IC50 (µM) ± SD hCA XII
Chain of hCA XII (O43570 25-354): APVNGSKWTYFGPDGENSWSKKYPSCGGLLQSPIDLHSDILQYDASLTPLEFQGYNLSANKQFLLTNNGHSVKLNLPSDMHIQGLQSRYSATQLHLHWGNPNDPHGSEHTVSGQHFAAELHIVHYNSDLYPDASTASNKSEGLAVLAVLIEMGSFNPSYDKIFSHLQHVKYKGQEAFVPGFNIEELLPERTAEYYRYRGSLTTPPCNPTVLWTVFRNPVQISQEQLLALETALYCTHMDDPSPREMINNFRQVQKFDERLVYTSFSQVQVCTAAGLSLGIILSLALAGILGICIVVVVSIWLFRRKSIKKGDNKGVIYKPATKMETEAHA

CCOC(=O)c1ccc(NC(=O)COC(=O)c2cn(-c3ccc(S(N)(=O)=O)cc3)nc2-c2ccc(Br)cc2)cc1 [Compound 5d, 2-[(4-(Ethoxycarbonyl)phenyl)amino]-2-oxoethyl 3-(4-bromophenyl)-1-(4-sulfamoylphenyl)-1H-pyrazole-4-carboxylate]
inhibition at 10 µM (CCRF-CEM): 85.8% | inhibition at 10 µM (HL-60(TB)): 89.4% | inhibition at 10 µM (K-562): 80.4% | inhibition at 10 µM (MOLT-4): 94% | inhibition at 10 µM (RPMI-8226): 80.3% | inhibition at 10 µM (SR): 80.1% | inhibition at 10 µM (COLO 205): 61.2% | inhibition at 10 µM (HCC-2998): 54.3% | inhibition at 10 µM (HCT-116): 73.6% | inhibition at 10 µM (HCT-15): 76.4% | inhibition at 10 µM (HT29): 88.3% | inhibition at 10 µM (KM12): 76.7% | inhibition at 10 µM (SW-620): 50.6% | inhibition at 10 µM (LOX IMVI): 72.9% | inhibition at 10 µM (M14): 73.7% | inhibition at 10 µM (MALME-3M): 46.1% | inhibition at 10 µM (MDA-MB-435): 61.2% | inhibition at 10 µM (SK-MEL-28): 55.6% | inhibition at 10 µM (SK-MEL-2): 49.1% | inhibition at 10 µM (SK-MEL-5): 36.3% | inhibition at 10 µM (UACC-257): 38.3% | inhibition at 10 µM (UACC-62): 58.7% | inhibition at 10 µM (IGROV1): 31.7% | inhibition at 10 µM (NCI/ADR-RES): 28.2% | inhibition at 10 µM (OVCAR-3): 62.6% | inhibition at 10 µM (OVCAR-4): 64% | inhibition at 10 µM (OVCAR-8): 13.3% | inhibition at 10 µM (786-0): 74.9% | inhibition at 10 µM (A498): 20.6% | inhibition at 10 µM (ACHN): 66% | inhibition at 10 µM (CAKI-1): 81.9% | inhibition at 10 µM (RXF 393): 82.8% | inhibition at 10 µM (SN12C): 47.1% | inhibition at 10 µM (TK-10): 18.4% | inhibition at 10 µM (UO-31): 58.9% | inhibition at 10 µM (DU-145): 45.8% | inhibition at 10 µM (PC-3): 78.8% | inhibition at 10 µM (BT-549): 36.6% | inhibition at 10 µM (HS 578T): 51.3% | inhibition at 10 µM (MCF-7): 91% | inhibition at 10 µM (MDA-MB-231/ATCC): 43.7% | inhibition at 10 µM (MDA-MB-468): 67.6% | inhibition at 10 µM (T-47D): 60.2% | IC50 (hCA IX): 0.631 ± 0.029 µM | IC50 (hCA XII): 0.99 ± 0.037 µM

— paper PMC12454493, “Insight on novel sulfamoylphenyl pyrazole derivatives as anticancer carbonic anhydrase inhibitors” (Molecular Diversity, 2024)
